Test results taken from patent US20200325140A1, “FUSED BICYCLIC COMPOUNDS FOR THE TREATMENT OF DISEASE” (Akarna Therapeutics, Ltd., priority 2016, published 2020).

These compounds were tested against T1, FXR (Homo sapiens, UniProt Q96RI1) (assay: FXR Agonist Assay (Gaussia luciferase reporter in cells)). Conditions: 20 hours incubation, 10-point dilution, duplicate.
T1 sequence (Q96RI1 1-486): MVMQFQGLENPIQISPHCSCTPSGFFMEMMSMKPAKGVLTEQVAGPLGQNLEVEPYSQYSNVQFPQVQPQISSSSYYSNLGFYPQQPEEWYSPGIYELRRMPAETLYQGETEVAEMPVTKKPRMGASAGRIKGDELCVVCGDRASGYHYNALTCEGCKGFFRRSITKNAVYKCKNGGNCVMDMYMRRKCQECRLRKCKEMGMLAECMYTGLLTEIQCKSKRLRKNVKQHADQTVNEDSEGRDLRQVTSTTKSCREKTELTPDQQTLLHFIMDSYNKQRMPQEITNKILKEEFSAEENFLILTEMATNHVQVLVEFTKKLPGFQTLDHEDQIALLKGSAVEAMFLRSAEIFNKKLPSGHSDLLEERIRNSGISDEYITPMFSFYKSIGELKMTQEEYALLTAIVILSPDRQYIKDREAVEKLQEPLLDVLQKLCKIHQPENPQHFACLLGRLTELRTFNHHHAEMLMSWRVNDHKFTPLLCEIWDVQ
Assay type: cell-based
Procedure: Starting from 3.33 mM of compound in DMSO solution, a 10-point 3-fold serial dilution was made by diluting 5 μL of compound into 10 μL of DMSO. The serially diluted compound was then diluted 1:33 into DMEM. This medium was then diluted ten-fold into the culture medium with the cells (10 μL/well). All concentration points are assayed in duplicate. Plates were incubated at 37° C. for 20 hours. After the incubation, 20 μL of culture medium were removed from each well and mixed with 50 μL of assay solution (Pierce™ Gaussia Luciferase Flash Assay Kit). The luminescence was measured immediately after addition of the Luc substrate with an Envision microplate reader. The raw data was uploaded to CDD and dose-response curves were generated using the Levenberg-Marquardt algorithm integrated into CDD. A negative control DMSO is included on each plate and used to normalize the data with the CDD built-in normalization function.

Row | SMILES | EC50 [nM]
1 | CC(C)OC(=O)C1=CN(C(=O)c2ccc(OCCN(C)C)cc2)CC(C)(C)c2c(C(F)(F)F)n[nH]c21 [Compound 1, (E)-isopropyl 6-(4-(2-(dimethylamino)ethoxy)benzoyl)-4,4-dimethyl-3-(trifluoromethyl)-1,4,5,6-tetrahydropyrazolo[3,4-d]azepine-8-carboxylate] | 200 to 1000
2 | CC(C)OC(=O)C1=CN(C(=O)c2ccc(OCCn3ccnc3)cc2)CC(C)(C)c2c(C(F)(F)F)n[nH]c21 [Compound 2, (E)-isopropyl 6-(4-(2-(1H-imidazol-1-yl)ethoxy)benzoyl)-4,4-dimethyl-3-(trifluoromethyl)-1,4,5,6-tetrahydropyrazolo[3,4-d]azepine-8-carboxylate] | < 200
3 | CC(C)OC(=O)C1=CN(C(=O)c2ccc(OCCN3CCN(C)CC3)cc2)CC(C)(C)c2c(C(F)(F)F)n[nH]c21 [Compound 3, (E)-isopropyl 4,4-dimethyl-6-(4-(2-(4-methylpiperazin-1-yl)ethoxy)benzoyl)-3-(trifluoromethyl)-1,4,5,6-tetrahydropyrazolo[3,4-d]azepine-8-carboxylate] | 200 to 1000
4 | CC(C)OC(=O)C1=CN(C(=O)c2ccc(OCCN3CCCC3)cc2)CC(C)(C)c2c(C(F)(F)F)n[nH]c21 [Compound 4, (E)-isopropyl 4,4-dimethyl-6-(4-(2-(pyrrolidin-1-yl)ethoxy)benzoyl)-3-(trifluoromethyl)-1,4,5,6-tetrahydropyrazolo[3,4-d]azepine-8-carboxylate] | 1000 to 10000
5 | CC(C)OC(=O)C1=CN(C(=O)c2cc(F)c(OCCN3CCOCC3)c(F)c2)CC(C)(C)c2c(C(F)(F)F)n[nH]c21 [Compound 5, (E)-isopropyl 6-(3,5-difluoro-4-(2-morpholinoethoxy)benzoyl)-4,4-dimethyl-3-(trifluoromethyl)-1,4,5,6-tetrahydropyrazolo[3,4-d]azepine-8-carboxylate] | < 200
